Test results from patent EP2385948B1, “FUSED THIAZOLO AND OXAZOLO PYRIMIDINONES” (Torrent Pharmaceuticals Limited, priority 2009, dated 2011).
Where a name gives a salt, the structure may show the parent alone.

The compounds below were run on erythropoietin (assay: In vitro erythropoietin induction (ELISA of cell culture supernatant)). Settings: Hep3B cell line, 200 uM, 16 hours, relative to vehicle control; Disodium salt, 960 min.
Method: Hep3B cell line (ATCC HB8064) was employed. Induction of erythropoietin was carried out for the indicated dose of compounds for 16 hours duration. At the end of 16 hours, cell culture medium was collected and centrifuged to remove any debris. Supernatant obtained was analyzed for erythropoietin by ELISA (R&D systems, USA). The results were expressed as fold induction as compared to vehicle control.

For `CC1(C)CCc2c(sc3nc(O)c(C(=O)NCC(=O)O)c(=O)n23)C1` [Compound 80, [(2-Hydroxy-7,7-dimethyl-4-oxo-5,6,7,8-tetrahydro-4H-9-thia-1,4a-diaza-fluorene-3-carbonyl)-amino]-acetic acid, Disodium salt], the EPO fold induction was “++++ (++++ indicates 9-16fold)”.

Same assay, conditions: Homo sapiens, Hep3B, 16 h, read-out: EPO fold induction, Hep3B cell line, 12.5 uM, 16 hours, relative to vehicle control

`N#Cc1cccnc1N1CCc2c(sc3nc(O)c(C(=O)NCC(=O)O)c(=O)n23)C1` [Compound 36, {[7-(3-Cyano-pyridin-2-yl)-2-hydroxy-4-oxo-5,6,7,8-tetrahydro-4H-9-thia-1,4a,7-triaza-fluorene-3-carbonyl]-amino}-acetic acid] was tested, and the fold induction at 12.5 µM was < 2.

Same assay, conditions: Homo sapiens, Hep3B, 16 h, read-out: EPO fold induction, Hep3B cell line, 50 uM, 16 hours, relative to vehicle control

With `O=C(O)CNC(=O)c1c(O)nc2sc3c(n2c1=O)CCN(Cc1cc(C(F)(F)F)cc(C(F)(F)F)c1)C3` [Compound 46, {[7-(3,5-Bis-trifluoromethyl-benzyl)-2-hydroxy-4-oxo-5,6,7,8-tetrahydro-4H-9-thia-1,4a,7-triaza-fluorene-3-carbonyl]-amino}-acetic acid] the fold induction at 50 µM was 2 to 4.

Same assay, conditions: Homo sapiens, Hep3B, 16 h, read-out: EPO fold induction, Hep3B cell line, 200 uM, 16 hours, relative to vehicle control

`O=C(O)CNC(=O)c1c(O)nc2sc3c(n2c1=O)CCN(C(=O)OCc1ccccc1)C3` [Compound 26, 3-(Carboxymethyl-carbamoyl)-2-hydroxy-4-oxo-5,8-dihydro-4H,6H-9-thia-1,4a,7-triaza-fluorene-7-carboxylic acid benzyl ester] and `O=C(O)CNC(=O)c1c(O)nc2sc3c(n2c1=O)CCN(C(=O)Cc1ccc(Cl)cc1)C3` [Compound 28, ({7-[2-(4-Chloro-phenyl)-acetyl]-2-hydroxy-4-oxo-5,6,7,8-tetrahydro-4H-9-thia-1,4a,7-triaza-fluorene-3-carbonyl}-amino)-acetic acid] fall in the same range of fold induction at 200 µM: 9 to 16 for the first, 9 to 16 for the second.

Compared with `O=C(O)CNC(=O)c1c(O)nc2sc3c(n2c1=O)CCN(C(=O)CC1CCCC1)C3` [Compound 29, {[7-(2-Cyclopentyl-acetyl)-2-hydroxy-4-oxo-5,6,7,8-tetrahydro-4H-9-thia-1,4a,7-triaza-fluorene-3-carbonyl]-amino}-acetic acid], `O=C(O)CNC(=O)c1c(O)nc2sc3c(n2c1=O)CCC(C(=O)O)C3` (stereo not shown) [Compound 72, 3-(Carboxymethyl-carbamoyl)-2-hydroxy-4-oxo-5,6,7,8-tetrahydro-4H-9-thia-1,4a-diaza-fluorene-7-carboxylic acid] is lower in fold induction at 200 µM: 9 to 16 for the first, < 2 for the second.

First: O=C(O)CCNC(=O)c1c(O)nc2sc3c(n2c1=O)CCCCC3 [Compound 30, 3-[(2-Hydroxy-4-oxo-6,7,8,9-tetrahydro-4H,5H-10-thia-1,4a-diaza-benzo[a]azulene-3-carbonyl)-amino]-propionic acid]
Second: O=C(O)CNC(=O)c1c(O)nc2sc3c(n2c1=O)CCCCCC3 [Compound 38, [(2-Hydroxy-4-oxo-5,6,7,8,9,10-hexahydro-4H-11-thia-1,4a-diaza-cycloocta[a]indene-3-carbonyl)-amino]-acetic acid]
The fold induction at 200 µM of the first is lower: < 2 for the first, 9 to 16 for the second.

First: COc1ccc(CN2CCc3c(sc4nc(O)c(C(=O)NCC(=O)O)c(=O)n34)C2)cc1 [Compound 31, {[2-Hydroxy-7-(4-methoxy-benzyl)-4-oxo-5,6,7,8-tetrahydro-4H-9-thia-1,4a,7-triaza-fluorene-3-carbonyl]-amino}-acetic acid]
Second: O=C(O)CNC(=O)c1c(O)nc2sc3c(n2c1=O)CCN(Cc1ccc2c(c1)CCC2)C3 [Compound 39, [(2-Hydroxy-7-indan-5-ylmethyl-4-oxo-5,6,7,8-tetrahydro-4H-9-thia-1,4a,7-triaza-fluorene-3-carbonyl)-amino]-acetic acid]
The fold induction at 200 µM of the first is higher: 5 to 8 for the first, 2 to 4 for the second.

First: O=C(O)CNC(=O)c1c(O)nc2sc3c(n2c1=O)CCN(C(=O)c1ccc(Cl)nc1)C3 [Compound 33, {[7-(6-Chloro-pyridine-3-carbonyl)-2-hydroxy-4-oxo-5,6,7,8-tetrahydro-4H-9-thia-1,4a,7-triaza-fluorene-3-carbonyl]-amino}-acetic acid]
Second: COc1ccc(C(=O)N2CCc3c(sc4nc(O)c(C(=O)NCC(=O)O)c(=O)n34)C2)cc1Cl [Compound 37, {[7-(3-Chloro-4-methoxy-benzoyl)-2-hydroxy-4-oxo-5,6,7,8-tetrahydro-4H-9-thia-1,4a,7-triaza-fluorene-3-carbonyl]-amino}-acetic acid]
The fold induction at 200 µM of the first is lower: 2 to 4 for the first, 5 to 8 for the second.

First: O=C(O)CNC(=O)c1c(O)nc2sc3c(n2c1=O)CCN(c1ccc(Cl)nn1)C3 [Compound 35, {[7-(6-Chloro-pyridazin-3-yl)-2-hydroxy-4-oxo-5,6,7,8-tetrahydro-4H-9-thia-1,4a,7-triaza-fluorene-3-carbonyl]-amino}-acetic acid]
Second: CS(=O)(=O)c1ccc(C(=O)N2CCc3c(sc4nc(O)c(C(=O)NCC(=O)O)c(=O)n34)C2)cc1 [Compound 42, {[2-Hydroxy-7-(4-methanesulfonyl-benzoyl)-4-oxo-5,6,7,8-tetrahydro-4H-9-thia-1,4a,7-triaza-fluorene-3-carbonyl]-amino}-acetic acid]
The fold induction at 200 µM of the first is lower: < 2 for the first, 5 to 8 for the second.

First: CC(NC(=O)c1c(O)nc2sc3c(n2c1=O)CCC(C)(C)C3)C(=O)O (stereo not shown) [Compound 40, 2-[(2-Hydroxy-7,7-dimethyl-4-oxo-5,6,7,8-tetrahydro-4H-9-thia-1,4a-diaza-fluorene-3-carbonyl)-amino]-propionic acid]
Second: C[C@@H](NC(=O)c1c(O)nc2sc3c(n2c1=O)CCC(C)(C)C3)C(=O)O [Compound 44, 2-[(2-Hydroxy-7,7-dimethyl-4-oxo-5,6,7,8-tetrahydro-4H-9-thia-1,4a-diaza-fluorene-3-carbonyl)-amino]-propionic acid (D-isomer)]
The fold induction at 200 µM of the first is higher: 5 to 8 for the first, < 2 for the second.

`CC(C)[C@H](NC(=O)c1c(O)nc2sc3c(n2c1=O)CCC(C)(C)C3)C(=O)O` [Compound 43, 2-[(2-Hydroxy-7,7-dimethyl-4-oxo-5,6,7,8-tetrahydro-4H-9-thia-1,4a-diaza-fluorene-3-carbonyl)-amino]-3-methyl-butyric acid (L-isomer)] and `CC1(C)CCc2c(sc3nc(O)c(C(=O)NC(C)(C)C(=O)O)c(=O)n23)C1` [Compound 54, 2-[(2-Hydroxy-7,7-dimethyl-4-oxo-5,6,7,8-tetrahydro-4H-9-thia-1,4a-diaza-fluorene-3-carbonyl)-amino]-2-methyl-propionic acid] cannot be ordered by fold induction at 200 µM: < 2 for the first, < 2 for the second.

First: CCC1(CC)CCc2c(sc3nc(O)c(C(=O)NCC(=O)O)c(=O)n23)C1 [Compound 53, [(7,7-Diethyl-2-hydroxy-4-oxo-5,6,7,8-tetrahydro-4H-9-thia-1,4a-diaza-fluorene-3-carbonyl)-amino]-acetic acid]
Second: O=C(O)CNC(=O)c1c(O)nc2sc3c(n2c1=O)CCC1(CC1)C3 [Compound 70, N-[(2'-hydroxy-4'-oxo-6',9'-dihydro-4'H,7'H-spiro[cyclopropane-1,8'-pyrimido[2,1-b][1,3]benzothiazol]-3'-yl)carbonyl]glycine]
The fold induction at 200 µM of the first is lower: < 2 for the first, 2 to 4 for the second.

`CC1(C)CCc2c(sc3nc(O)c(C(=O)N[C@H](C(=O)O)c4ccccc4)c(=O)n23)C1` [Compound 55, [(2-Hydroxy-7,7-dimethyl-4-oxo-5,6,7,8-tetrahydro-4H-9-thia-1,4a-diaza-fluorene-3-carbonyl)-amino]-phenyl-acetic acid, L-isomer] and `CN(CC(=O)O)C(=O)c1c(O)nc2sc3c(n2c1=O)CCC(C)(C)C3` [Compound 61, [(2-Hydroxy-7,7-dimethyl-4-oxo-5,6,7,8-tetrahydro-4H-9-thia-1,4a-diaza-fluorene-3-carbonyl)-methyl-amino] -acetic acid] cannot be ordered by fold induction at 200 µM: < 2 for the first, < 2 for the second.

`O=C(O)CNC(=O)c1c(O)nc2sc3c(n2c1=O)CCC(NC(=O)c1ccccc1)C3` (stereo not shown) [Compound 56, [(7-Benzoylamino-2-hydroxy-4-oxo-5,6,7,8-tetrahydro-4H-9-thia-1,4a-diaza-fluorene-3-carbonyl)-amino]-acetic acid] and `O=C(O)CNC(=O)c1c(O)nc2sc3c(n2c1=O)CCC(c1ccccc1)C3` (stereo not shown) [Compound 64, [(2-Hydroxy-4-oxo-7-phenyl-5,6,7,8-tetrahydro-4H-9-thia-1,4a-diaza-fluorene-3-carbonyl)-amino]-acetic acid] cannot be ordered by fold induction at 200 µM: < 2 for the first, < 2 for the second.

Compared with `O=C(O)CNC(=O)c1c(O)nc2oc3c(n2c1=O)CCCC3` [Compound 57, [(2-Hydroxy-4-oxo-5,6,7,8-tetrahydro-4H-9-oxa-1,4a-diaza-fluorene-3-carbonyl)-amino]-acetic acid], `O=C(O)CNC(=O)c1c(O)nc2sc3c(n2c1=O)CCOC3` [Compound 65, [(2-Hydroxy-4-oxo-5,8-dihydro-4H,6H-7-oxa-9-thia-1,4a-diaza-fluorene-3-carbonyl)-amino]-acetic acid] is higher in fold induction at 200 µM: < 2 for the first, 5 to 8 for the second.

First: CC1CCc2c(sc3nc(O)c(C(=O)NCC(=O)O)c(=O)n23)C1 (stereo not shown) [Compound 58, [(2-Hydroxy-7-methyl-4-oxo-5,6,7,8-tetrahydro-4H-9-thia-1,4a-diaza-fluorene-3-carbonyl)-amino]-acetic acid]
Second: CCCC1CCc2c(sc3nc(O)c(C(=O)NCC(=O)O)c(=O)n23)C1 (stereo not shown) [Compound 59, [(2-Hydroxy-4-oxo-7-propyl-5,6,7,8-tetrahydro-4H-9-thia-1,4a-diaza-fluorene-3-carbonyl)-amino]-acetic acid]
The fold induction at 200 µM of the first is higher: 5 to 8 for the first, < 2 for the second.

First: CC1(C)CCc2sc3nc(O)c(C(=O)NCC(=O)O)c(=O)n3c2C1 [Compound 60, [(2-Hydroxy-6,6-dimethyl-4-oxo-5,6,7,8-tetrahydro-4H-9-thia-1,4a-diaza-ftuorene-3-carbonyl)-amino]-acetic acid]
Second: O=C(O)CNC(=O)c1c(O)nc2sc3c(n2c1=O)CCS(=O)(=O)C3 [Compound 67, [(2-Hydroxy-4,7,7-trioxo-5,6,7,8-tetrahydro-4H-71ambda*6*,9-dithia-1,4a-diaza-fluorene-3-carbonyl)-amino]-acetic acid]
The fold induction at 200 µM of the first is higher: 5 to 8 for the first, 2 to 4 for the second.
